# According to ChEMBL document CHEMBL1201862, “PubChem BioAssay data set” (2004):
# Active and inactive are the calls of the source. Rule as the data show it, for most assays here: actives have a measured EC50 and inactives only a lower limit.
# Columns and labels:
# Vero [1] = assay: cells; assay type: functional; conditions: Chlorocebus sabaeus
# BJ [2] = assay: growth inhibition of engineered Ras-driven BJ cells – cell-based, alamar blue fluorescence, cherrypicked samples, dose response (AID 2631); assay type: functional; conditions: Homo sapiens;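 also: confirmatory dose-response assay in RAS-dependent BJ fibroblasts engineered with TERT, LT and ST, with cytotoxicity read by fluorescence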
# [3] = target: T1, Replicative DNA helicase DnaB (Mycobacterium tuberculosis, UniProt P9WMR3); assay: DnaB intein splicing inhibitors, dose response, biochemical, cell-free fluorescence (AID 449749); assay type: functional
# T1 sequence (P9WMR3 whole entry): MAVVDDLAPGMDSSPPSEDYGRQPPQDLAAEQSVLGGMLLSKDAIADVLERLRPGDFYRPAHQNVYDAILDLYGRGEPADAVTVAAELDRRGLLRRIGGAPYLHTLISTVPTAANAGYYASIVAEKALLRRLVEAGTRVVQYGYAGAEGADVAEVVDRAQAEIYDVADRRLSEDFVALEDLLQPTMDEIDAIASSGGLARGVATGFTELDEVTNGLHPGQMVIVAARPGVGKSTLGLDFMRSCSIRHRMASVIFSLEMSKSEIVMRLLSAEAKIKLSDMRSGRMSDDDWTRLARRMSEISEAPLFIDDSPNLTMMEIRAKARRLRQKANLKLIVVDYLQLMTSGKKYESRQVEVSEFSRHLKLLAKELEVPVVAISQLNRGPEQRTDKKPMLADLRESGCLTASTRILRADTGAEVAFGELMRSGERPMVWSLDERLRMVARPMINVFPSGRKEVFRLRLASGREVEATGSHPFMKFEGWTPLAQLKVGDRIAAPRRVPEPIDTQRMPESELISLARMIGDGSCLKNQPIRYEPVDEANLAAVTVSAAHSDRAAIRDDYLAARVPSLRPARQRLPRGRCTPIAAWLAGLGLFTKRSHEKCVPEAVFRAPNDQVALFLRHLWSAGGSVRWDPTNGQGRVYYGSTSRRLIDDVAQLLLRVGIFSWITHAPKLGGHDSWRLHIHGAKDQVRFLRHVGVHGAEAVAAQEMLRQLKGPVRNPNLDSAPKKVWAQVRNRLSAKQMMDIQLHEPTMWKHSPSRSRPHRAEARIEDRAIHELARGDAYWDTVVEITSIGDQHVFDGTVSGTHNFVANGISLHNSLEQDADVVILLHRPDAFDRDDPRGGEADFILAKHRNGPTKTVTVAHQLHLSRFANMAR
# Protein RecA = target: T2, Protein RecA (Mycobacterium tuberculosis, UniProt P9WHJ3); assay: Fluorescence Cell-Free Homogeneous Dose Retest to Identify Inhibitors of RecA-Intein Splicing Activity. [Related pubchem assays (depositor defined):AID2097, AID2223, AID489010, AID492950]; assay type: functional
# T2 sequence (P9WHJ3 whole entry): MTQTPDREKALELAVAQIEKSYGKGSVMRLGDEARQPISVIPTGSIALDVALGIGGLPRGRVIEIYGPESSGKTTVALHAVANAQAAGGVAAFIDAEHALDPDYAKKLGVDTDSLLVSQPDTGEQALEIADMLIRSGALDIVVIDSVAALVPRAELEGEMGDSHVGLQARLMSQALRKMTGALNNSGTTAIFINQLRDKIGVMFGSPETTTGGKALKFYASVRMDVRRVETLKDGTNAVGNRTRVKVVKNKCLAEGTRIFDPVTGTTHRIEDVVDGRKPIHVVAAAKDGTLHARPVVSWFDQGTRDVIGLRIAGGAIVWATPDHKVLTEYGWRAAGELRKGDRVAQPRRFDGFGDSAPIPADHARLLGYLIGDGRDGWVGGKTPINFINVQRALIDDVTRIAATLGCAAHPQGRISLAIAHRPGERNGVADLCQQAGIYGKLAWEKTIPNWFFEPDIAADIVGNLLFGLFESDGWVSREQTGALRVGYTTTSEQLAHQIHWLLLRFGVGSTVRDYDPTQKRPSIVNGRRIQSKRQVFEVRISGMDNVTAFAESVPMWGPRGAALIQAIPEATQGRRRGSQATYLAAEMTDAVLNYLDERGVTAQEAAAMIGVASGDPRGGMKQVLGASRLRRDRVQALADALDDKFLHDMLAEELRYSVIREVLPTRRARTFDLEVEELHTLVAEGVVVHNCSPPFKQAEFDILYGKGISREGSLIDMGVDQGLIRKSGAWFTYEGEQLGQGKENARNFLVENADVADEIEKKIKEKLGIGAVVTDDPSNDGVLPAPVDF
# Large T antigen = Large T antigen (Simian virus 40, UniProt P03070); assay type: functional, Betapolyomavirus macacae;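 also: Confirmatory-stage PubChem screen for compounds that inhibit SV40 T antigen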
# [4] = target: Dual specificity tyrosine-phosphorylation-regulated kinase 1A (Rattus norvegicus, UniProt Q63470); assay type: biochemical, Homo sapiens
# [5] = target: T3, Endoribonuclease toxin MazF (Escherichia coli K-12, UniProt P0AE70); assay: substrate-only fluorescence increase artefacts – biochemical, single-stranded RNase substrate, counter-screen for MazEF activator project, dose response (AID 588502); assay type: functional
# T3 sequence (P0AE70 whole entry): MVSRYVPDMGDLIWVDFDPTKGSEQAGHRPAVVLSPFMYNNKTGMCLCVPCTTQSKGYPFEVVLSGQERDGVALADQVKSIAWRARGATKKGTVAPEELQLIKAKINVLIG
# [6] = target: T3, Endoribonuclease toxin MazF; assay: activation of MazEF endoribonuclease cleavage – biochemical, fluorescence, single-stranded RNA substrate, uHTS hits, dose response (AID 588481); assay type: functional
# [7] = DRD fibroblast viability loss – cell-based, non-viral oncogenic, luminescence, dose response (AID 1934); assay type: functional; conditions: Homo sapiens
# BJ [8] = assay: cells; assay type: functional, cell-based, Homo sapiens; conditions: Homo sapiens, BJ
# BJ [9] = assay: BJ-TERT-LT-ST fibroblast viability loss – cell-based, RAS-independent, luminescence, dose response (AID 1935); assay type: functional; conditions: Homo sapiens;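 also: BJ fibroblasts immortalized with TERT plus LT and ST oncogenes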
# BJ [10] = assay: BJ-TERT fibroblast viability loss – cell-based, RAS-independent, luminescence, dose response (AID 1933); assay type: functional; conditions: Homo sapiens
# Escherichia coli = assay: microbe, parasite or virus in culture
# [11] = target: ATP-dependent molecular chaperone HSP82 (Candida albicans (strain WO-1) (Yeast), UniProt C4YTQ8); assay: steroid-induced GRE reporter decrease in yeast – S. cerevisiae, luminescence, Hsp90 inhibitor project, dose response (AID 2400); assay type: functional, cell-based;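 also: beta-galactosidase luminescence from glucocorticoid response element reporter as proxy for Hsp90 function; inhibitor potency where signal loss means Hsp90 inhibition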
# [12] = target: T4, Serine/threonine-protein phosphatase (Candida dubliniensis (strain CD36 / CBS 7987 / NCPF 3949 / NRRLY-17841) (Yeast), UniProt B9W6M3); assay: blockers of CaCl2-induced CDRE-lacZ signaling – S. cerevisiae, luminescence, secondary, dose response (AID 2388); assay type: functional, cell-based;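 also: yeast reporter cells carrying a calcineurin-responsive lacZ construct stimulated with calcium chloride; luminescent beta-galactosidase reporter signal in whole cells rather than isolated phosphatase activity; potency for inhibition where a drop in reporter signal means calcineurin blockade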
# T4 sequence (B9W6M3 whole entry): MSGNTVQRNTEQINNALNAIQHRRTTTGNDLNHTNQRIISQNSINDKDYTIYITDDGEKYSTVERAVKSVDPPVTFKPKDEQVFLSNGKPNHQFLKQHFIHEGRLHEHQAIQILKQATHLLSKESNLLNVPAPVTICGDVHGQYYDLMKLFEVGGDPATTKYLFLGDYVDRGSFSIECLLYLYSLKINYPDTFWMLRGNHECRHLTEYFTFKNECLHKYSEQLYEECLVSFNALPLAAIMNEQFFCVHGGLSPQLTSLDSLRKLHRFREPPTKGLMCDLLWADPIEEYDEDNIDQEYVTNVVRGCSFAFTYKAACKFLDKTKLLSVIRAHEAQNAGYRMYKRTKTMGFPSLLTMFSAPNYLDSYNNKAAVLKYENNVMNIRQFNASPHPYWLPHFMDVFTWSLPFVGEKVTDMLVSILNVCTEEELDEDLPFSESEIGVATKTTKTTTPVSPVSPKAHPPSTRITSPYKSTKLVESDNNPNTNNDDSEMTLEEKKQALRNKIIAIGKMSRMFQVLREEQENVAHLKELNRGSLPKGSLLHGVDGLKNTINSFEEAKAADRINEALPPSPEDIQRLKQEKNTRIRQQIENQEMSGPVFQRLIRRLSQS
# [13] = fluconazole-exposed Candida albicans growth modulators – fluorescence, retest, confirmation (AID 2467); assay type: functional, cell-based
# [14] = test system: Streptococcus sp. 'group A'; assay: Streptococcus pyogenes SK(-)GAS viability under kanamycin – luminescence, BacTiterGlo, confirmation, counter-screen for streptokinase expression inhibitor project, dose response (AID 1900); assay type: functional, organism-based
# [15] = NIH-3T3 fibroblast cytotoxicity, dose response, cytotoxicity control, cell-based, fluorescence, Alamar Blue, secondary assay (AID 2327); assay type: functional;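 also: NIH-3T3 mouse fibroblasts cultured with fluconazole at 8 µg/mL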
# Streptococcus = assay: GAS UMAA2166 growth inhibition – luminescence, BacTiterGlo, counter-screen for streptokinase expression inhibitor project, dose response (AID 1915); assay type: functional, organism-based;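 also: potency for reduction of bacterial viability or growth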
# Streptokinase A = target: T5, Streptokinase A (Streptococcus pyogenes serotype M1, UniProt P10520); assay: viability-normalized secreted streptokinase activity reduction – plasminogen activation absorbance, OD405, dose response (AID 1914); assay type: functional, Streptococcus pyogenes M1 GAS;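 also: secreted streptokinase activity via plasminogen activation per viability signal from cell pellet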
# T5 sequence (P10520 whole entry): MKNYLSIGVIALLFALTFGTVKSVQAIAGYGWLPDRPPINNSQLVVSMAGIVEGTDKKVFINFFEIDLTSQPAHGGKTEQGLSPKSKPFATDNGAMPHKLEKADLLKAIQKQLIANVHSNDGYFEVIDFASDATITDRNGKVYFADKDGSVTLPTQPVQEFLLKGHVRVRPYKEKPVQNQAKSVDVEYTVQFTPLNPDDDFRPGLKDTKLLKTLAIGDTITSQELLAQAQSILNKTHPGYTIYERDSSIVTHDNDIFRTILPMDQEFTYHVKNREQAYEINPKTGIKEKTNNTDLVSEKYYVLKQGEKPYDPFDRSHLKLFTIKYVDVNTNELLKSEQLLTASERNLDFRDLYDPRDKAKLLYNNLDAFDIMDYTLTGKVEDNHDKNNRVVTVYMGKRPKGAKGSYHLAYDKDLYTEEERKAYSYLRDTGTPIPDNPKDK
# [16] = viability of uninfected HEp-2 cells – cell-based, HTS, cytotoxicity control for RSV inhibitor project, dose response (AID 2410); assay type: functional; conditions: human respiratory syncytial virus
# Vero [17] = assay: cells; assay type: functional, cell-based; conditions: Chlorocebus sabaeus
# [18] = NIH3T3 cell viability loss – ATP luminescence, mouse fibroblasts, counter-screen, dose response (AID 2010); assay type: functional, cell-based;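 also: cells exposed to compound for about 90 hours before reading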
# [19] = Trypanosoma cruzi growth suppression in host cells – NIH3T3 host cells, beta-gal luminescence, confirmation (AID 2044); assay type: functional, cell-based;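 also: intracellular parasites grown in NIH/3T3 mouse fibroblasts as host cells; luminescent beta-galactosidase reporter signal from transgenic T. cruzi replicating inside host cells; inhibitors lower the luminescence signal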
# [20] = target: FAD-linked sulfhydryl oxidase ALR (Homo sapiens, UniProt P55789); assay: ALR-catalysed DTT oxidation blockers – biochemical, H2O2 detection, luminescence, cherry-pick, dose response (AID 493248)
# HEK293 = assay: EBV LMP1 TES2 canonical NF-kB signalling blockers – cell-based, HEK293, luciferase, cherry-pick, dose response (AID 588343); assay type: functional; conditions: Homo sapiens
# Sequence of ATP-dependent molecular chaperone HSP82 (C4YTQ8 whole entry): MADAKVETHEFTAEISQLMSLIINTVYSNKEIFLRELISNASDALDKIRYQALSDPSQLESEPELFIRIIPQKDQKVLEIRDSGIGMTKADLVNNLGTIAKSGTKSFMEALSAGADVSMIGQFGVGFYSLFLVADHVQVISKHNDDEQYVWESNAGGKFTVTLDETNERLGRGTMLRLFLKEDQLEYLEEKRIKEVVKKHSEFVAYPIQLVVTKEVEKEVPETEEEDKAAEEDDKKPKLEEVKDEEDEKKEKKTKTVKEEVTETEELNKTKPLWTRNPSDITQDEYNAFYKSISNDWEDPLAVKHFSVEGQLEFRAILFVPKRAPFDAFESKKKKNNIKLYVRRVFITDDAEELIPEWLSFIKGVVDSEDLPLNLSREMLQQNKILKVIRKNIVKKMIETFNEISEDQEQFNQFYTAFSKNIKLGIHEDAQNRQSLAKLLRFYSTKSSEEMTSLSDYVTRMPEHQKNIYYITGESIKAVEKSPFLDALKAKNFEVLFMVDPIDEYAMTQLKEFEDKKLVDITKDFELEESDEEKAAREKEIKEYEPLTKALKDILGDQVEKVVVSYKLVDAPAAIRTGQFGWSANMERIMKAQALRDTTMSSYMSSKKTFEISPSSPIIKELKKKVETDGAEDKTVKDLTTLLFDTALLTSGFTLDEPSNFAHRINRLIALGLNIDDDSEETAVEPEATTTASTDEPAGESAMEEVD
# Sequence of Large T antigen (P03070 whole entry): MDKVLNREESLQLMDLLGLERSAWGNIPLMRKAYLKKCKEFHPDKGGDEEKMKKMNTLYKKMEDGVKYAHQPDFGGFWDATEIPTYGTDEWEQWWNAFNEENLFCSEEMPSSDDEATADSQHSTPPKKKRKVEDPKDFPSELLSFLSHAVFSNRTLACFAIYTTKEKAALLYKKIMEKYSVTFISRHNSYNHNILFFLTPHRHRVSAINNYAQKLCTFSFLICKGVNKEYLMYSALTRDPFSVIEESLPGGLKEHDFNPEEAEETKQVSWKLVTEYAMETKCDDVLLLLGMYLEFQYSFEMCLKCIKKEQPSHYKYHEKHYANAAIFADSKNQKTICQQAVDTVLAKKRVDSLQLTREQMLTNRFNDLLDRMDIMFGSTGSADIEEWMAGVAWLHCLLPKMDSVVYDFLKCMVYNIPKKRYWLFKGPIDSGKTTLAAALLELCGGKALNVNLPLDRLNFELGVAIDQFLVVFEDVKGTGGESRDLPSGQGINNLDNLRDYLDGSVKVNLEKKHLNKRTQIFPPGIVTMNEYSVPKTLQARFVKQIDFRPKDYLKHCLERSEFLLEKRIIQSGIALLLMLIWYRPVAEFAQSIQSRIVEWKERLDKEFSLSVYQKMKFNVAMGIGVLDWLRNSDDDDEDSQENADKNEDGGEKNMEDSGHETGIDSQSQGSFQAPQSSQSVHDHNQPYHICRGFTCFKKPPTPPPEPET
# Sequence of FAD-linked sulfhydryl oxidase ALR (P55789 whole entry): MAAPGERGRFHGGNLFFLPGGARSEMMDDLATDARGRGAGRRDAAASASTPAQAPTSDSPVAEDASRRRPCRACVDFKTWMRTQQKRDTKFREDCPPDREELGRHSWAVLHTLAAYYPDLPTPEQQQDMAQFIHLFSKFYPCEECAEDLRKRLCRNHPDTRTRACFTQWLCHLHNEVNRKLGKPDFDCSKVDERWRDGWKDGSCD
structure (smiles),measurement,setting,value
COCCCNC1=NN=C(c2cc(C)n(Cc3ccco3)c2C)CS1,CC50,Vero [1],2.27 µM (active)
same,EC50,BJ [2],0.201 µM (active)
COc1cc(C=C2C(=O)c3ccccc3C2=O)ccc1O,AC50,[3],> 380 µM (inactive)
same,EC50,Protein RecA,22.9 µM (active)
same,IC50,Large T antigen,15.1 µM (active)
same,AC50,[4],0.585 µM (active)
O=C(COC(=O)c1ccccc1C(=O)N1CCN(c2ccccc2)CC1)NCc1ccccc1,EC50,[5],> 99 µM (inactive)
same,EC50,[6],> 99 µM (inactive)
C[C@@H]1C=CC(=O)O[C@@H]1c1ccc(C(F)(F)F)cc1,EC50,[7],2.27 µM (active)
same,EC50,BJ [8],5.53 µM (active)
same,EC50,BJ [9],12.4 µM (active)
same,EC50,BJ [2],0.409 µM (active)
same,EC50,BJ [10],49.6 µM (active)
CC(=O)N1CC[C+]([N-]NS(=O)(=O)c2cccc([N+](=O)[O-])c2)CC1,EC50,[5],23.9 µM (inactive)
same,EC50,[6],> 99 µM (inactive)
Cc1ccccc1NC(=O)CCN1CCN(CCO)CC1,AC50,Escherichia coli,23.6 µM (active)
O=C(Nc1nnc(-c2ccco2)o1)c1ccc(Cl)cc1,EC50,[11],> 150 µM (inactive)
same,EC50,[12],> 180 µM (inactive)
same,EC50,[13],0.9 µM (active)
same,EC50,[14],0.983 µM (active)
same,EC50,[15],> 150 µM (inactive)
same,EC50,Streptococcus,15.6 µM (active)
same,EC50,Streptokinase A,> 150 µM (not active)
Cc1cnc(NC(=O)COc2cccc3c2OC(C)(C)C3)s1,CC50,[16],30.2 µM (active)
same,IC50,Vero [17],13 µM (active)
same,CC50,Vero [1],> 25 µM (active)
same,IC50,cells,22.2 µM (active)
O=C1NC(=O)/C(=C\c2ccc(Br)o2)S1,EC50,[11],> 150 µM (inactive)
same,EC50,[12],> 180 µM (inactive)
same,EC50,[13],1.3 µM (active)
same,EC50,[18],> 60 µM (not active)
same,EC50,[19],21.7 µM (active)
same,AC50,[4],4.62 µM (active)
same,EC50,[15],87.3 µM (inconclusive)
CCOC(=O)C1=C(NC(=S)NC(=O)c2ccccc2)c2ccccc2CC1C(C)C (configuration not stated),EC50,[7],60.6 µM (active)
same,CC50,[16],9.61 µM (active)
same,IC50,Vero [17],9.18 µM (active)
same,EC50,BJ [8],54.1 µM (inconclusive)
same,EC50,BJ [9],> 150 µM (not active)
same,CC50,Vero [1],> 25 µM (active)
same,IC50,cells,3.58 µM (active)
same,EC50,BJ [10],> 150 µM (not active)
Cc1cc(C(C#N)c2ccccc2F)n2ncnc2n1 (configuration not stated),EC50,[11],> 160 µM (inactive)
same,EC50,[12],> 180 µM (inactive)
same,AC50,Escherichia coli,36.4 µM (active)
same,EC50,[13],1.28 µM (active)
same,AC50,[20],34.3 µM (active)
same,EC50,[15],> 150 µM (inconclusive)
Cc1ccc(S(=O)(=O)N2CCN(CC(=O)NC(=O)NCc3ccccc3)CC2)cc1C,EC50,[5],> 99 µM (inactive)
same,EC50,[6],> 99 µM (inactive)
c1ccc2c(-c3ccncc3)c[nH]c2c1,AC50,[4],2.41 µM (active)
same,AC50,HEK293,144 µM (active)
